Test results taken from EPA's ToxValDB 9.5.
Several values for one entry are separate records, joined by “and”; a condition that tells them apart may be missing. Equal values may be shown once.

Assays:
Canidae = settings: oral, M/F, Dog Other; for LEL / NOEL: chronic, diet
Mus musculus [1] = settings: chronic, M/F; for LEL / NOEL: diet
Rattus norvegicus [2] = settings: oral, gavage
Rattus norvegicus [3] = settings: repeat dose other; oral
Rattus norvegicus [4] = settings: oral, M/F
Rattus norvegicus [5] = settings: subchronic, duration: 13 weeks
Rattus norvegicus [6] = settings: M/F
Rattus norvegicus [7] = settings: Hershberger; duration: 10 days; oral; gavage; Sprague-Dawley; active + Negative + Antiandrogenic + anti-androgenic + Delayed PPS and decreased AST wt at 375 / bw decreased 6-7% / increased liver wt in…
Mus musculus [8] = settings: developmental; duration: 9 days; inhalation; whole body; M/F; CF1; developmental
Mus musculus [9] = settings: duration: 10 days, inhalation, CF1
Rattus norvegicus [10] = settings: duration: 10 days, inhalation, Sprague-Dawley
Oryctolagus sp. = settings: duration: 13 days, inhalation, New Zealand
[11] = duration: 2 years, Increased mean blood sugar concentration + slight hypothermia
[12] = short-term, duration: 28 days, M, Sprague-Dawley, Clinical Observation: Respiratory rate decrease, Incomplete eyelid opening SalivationSpontaneous locomotion decrease + Body Weight Changes: …
[13] = short-term, duration: 28 days, M, Sprague-Dawley, Clinical Observation: Spontaneous locomotion decrease, Respiratory rate decrease, Salivation + Body Weight Changes: decrease + Food …
[14] = subchronic, mortality and body weight loss
[15] = inhalation, B6C3F1, suppurative inflammation of the nose
[16] = duration: 2 years, reduced body weight gain
[17] = duration: 6 months, liver and thyroid effects
[18] = duration: 1 years, increased serum cholesterol, alkaline phosphatase, and relative liver and kidney weight, and decreased alanine transaminase and adrenal …
[19] = duration: 20 months, oral, increased absolute liver weight and nonneoplastic lesions
[20] = duration: 2 years, oral, centrilobular hepatocytomegaly (males)
[21] = chronic, diet, liver cell polymorphism

## Cc1ccc(N=CN(C)C=Nc2ccc(C)cc2C)c(C)c1 [Amitraz]
Canidae; [11]
  LEL: 1 mg/kg-day
  NOEL: 0.25 mg/kg-day

## ClC(Cl)Br [Bromodichloromethane]
Mus musculus [1]; oral, gavage, renal cytomegaly
  LOAEL: 25 mg/kg-day
Rattus norvegicus [2]; [12]
  NOAEL: 40 mg/kg-day
  NOEL: < 40 mg/kg-day
Rattus norvegicus [2]; [13]
  NOAEL: 40 mg/kg-day
  NOEL: < 40 mg/kg-day
Rattus norvegicus [2]; subchronic, duration: 13 weeks, M/F, Fischer 344, Deaths + Body Weight Changes: decrease + Histopathology: Liver/centrilobular-Degeneration Liver/bile duct -Hyperplasia Liver-Enlargement, …
  NOEL: 38 mg/kg-day

## [O]=[Cr][O][Cr]=[O] [Chromium(III) oxide]
Rattus norvegicus [3]
  NOAEL: 2740 mg/kg-day

## Clc1ccc2oc3c(Cl)c(Cl)c(Cl)c(Cl)c3c2c1 [Dibenzofuran, 1,2,3,4,8-pentachloro-]
Rattus norvegicus [3]
  NOAEL: 0.048 mg/kg-day

## O=C(O)C(Cl)Cl [Dichloroacetic acid]
Canidae; subchronic, lesions in testes, cerebrum, cerebellum, and liver
  LOAEL: 12.5 mg/kg-day

## CCOC(C)=O [Ethyl acetate]
Rattus norvegicus [3]
  LOAEL: 360 mg/kg-day
  NOAEL: 90 mg/kg-day
Rattus norvegicus [4]; [14]
  LOAEL: 3600 mg/kg-day
  NOEL: 900 mg/kg-day

## ClC1=C(Cl)C(Cl)(Cl)C(Cl)=C1Cl [Hexachlorocyclopentadiene]
Rattus norvegicus [5]; inhalation, intermittent, Nasal cavity: Squamous metaplasia
  NOAEL: 1.67 mg/m3
Rattus norvegicus [5]; oral, Forestomach: Lesions
  NOAEL: 7.1 mg/kg-day
Rattus norvegicus [6]; chronic, duration: 2 years, inhalation, Fischer 344, respiratory
  LOAEL: 0.112 mg/m3
Rattus norvegicus [6]; chronic, duration: 14 weeks, inhalation, Sprague-Dawley, respiratory
  NOAEL: 2.23 mg/m3
Rattus norvegicus [6]; subchronic, duration: 13 weeks, oral, gavage, Fischer 344, renal
  NOAEL: 19 mg/kg-day
Mus musculus [1]; [15]
  LOAEL: 2.23 mg/m3
  NOAEL: 0.56 mg/m3

## C=CCOC(Cn1ccnc1)c1ccc(Cl)cc1Cl (stereo not drawn) [Imazalil]
Canidae; [16]
  LEL: 5 mg/kg-day
  NOEL: 1.25 mg/kg-day

## CNc1cnn(-c2cccc(C(F)(F)F)c2)c(=O)c1Cl [Norflurazon]
Rattus norvegicus [7]
  LOEL: 375 mg/kg-day and 1000 mg/kg-day
  NOEL: 185 mg/kg-day and 300 mg/kg-day
Canidae; [17]
  LEL: 10.2 mg/kg-day
  NOEL: 3.75 mg/kg-day

## CCCN(CCC)c1c([N+](=O)[O-])cc(S(N)(=O)=O)cc1[N+](=O)[O-] [Oryzalin]
Canidae; [18]
  LEL: 50 mg/kg-day
  NOEL: 5 mg/kg-day

## CCOc1cc(Oc2ccc(C(F)(F)F)cc2Cl)ccc1[N+](=O)[O-] [Oxyfluorfen]
Mus musculus [1]; [19]
  LEL: 3 mg/kg-day
  NOEL: 0.3 mg/kg-day

## O=[Se](=O)([O-])[O-] [Selenate]
Rattus norvegicus [3]
  LOAEL: 0.33 mg/kg-day
  NOAEL: 0.2 mg/kg-day

## COc1nc(C)nc(NC(=O)NS(=O)(=O)c2ccccc2OCCCl)n1 [Triasulfuron]
Mus musculus [1]; [20]
  LEL: 129 mg/kg-day
  NOEL: 1.2 mg/kg-day

## C=CCl [Vinyl chloride]
Rattus norvegicus [3]
  LOAEL: 1.7 mg/kg-day
  NOAEL: 0.17 mg/kg-day
Mus musculus [8]
  NOAEL: 128 mg/m3
Rattus norvegicus [6]; chronic, duration: 149 weeks, oral, diet, Wistar, hepatic
  NOAEL: 0.17 mg/kg-day
Rattus norvegicus [4]; [21]
  LOAEL: 1.3 mg/kg-day
  NOAEL: 0.13 mg/kg-day
Mus musculus [9]; developmental
  NOAEL: 1280 mg/m3
Mus musculus [9]; reproduction developmental, F
  NOAEL: 128 mg/m3
Rattus norvegicus [10]; developmental
  NOAEL: 6390 mg/m3
Rattus norvegicus [10]; reproduction developmental, F
  NOAEL: < 1280 mg/m3
Oryctolagus sp.; developmental
  NOAEL: 6390 mg/m3
Oryctolagus sp.; reproduction developmental, F
  NOAEL: < 1280 mg/m3
